Measured values published in the pKa sets of Baltruschat and Czodrowski (2020).
Where a SMILES comes first, the peptide text is derived from it. [ ]: non-standard residue; d: D form. pGlu = O=C1CC[C@@H](C(=O)O)N1

Conditions: acidic group

SMILES | pKa
Nc1ccc(-c2ccc(/N=C/c3ccccc3O)cc2)cc1 | 11.1
Cc1nn(-c2ccccc2)c(O)c1C(C)C | 11.6
COc1ccccc1O | 9.7
Nc1nc2cc3ccccc3cc2[nH]1 | 12.8
COc1ccc(O)c(/N=N/c2nc(C)cs2)c1 | 7.98
Cc1cc(C)c(C(=O)C(=O)O)c(C)c1 | 1.34
[NH3+][C@H]1CCC[C@H](C(=O)O)C1 | 3.85
NS(=O)(=O)c1nnc(Nc2ccccc2)s1 | 7.7
O=[N+]([O-])c1cccc(NC=S)c1 | 10.3
CCCCCCCCc1c(-c2ccccc2)n[nH]c1O | 10.2
O=C1CC(=O)CS(=O)(=O)C1 | 2.72
O=C/C(O)=C/O | 5.03
CC(=O)NOC(C)=O | 6.81
CC(C)CCC[NH+](C)CCCNC(=O)/C=N/O | 8.72
CCCCCCCCCc1c(-c2ccccc2)nn(-c2ccccc2)c1O | 7.2
O=C(O)C1(C(=O)O)CCCC1 | 3.24
C[C@@H]1CC[C@H](C)[C@H]1C(=O)O | 4.69
Oc1[nH+]ccc2cccnc12 | 2.64
Cc1c(Cc2c(C)n(C)[n+](-c3ccccc3)c2O)c(=O)n(-c2ccccc2)n1C | 1.51

SMILES | pKa
COC(=O)/C=C(\O)c1ccncc1 | 7.51
O=C(O)c1cc2cc(Cn3cc[nH+]c3)ccc2s1 | 2.74
O=C(O)C(c1ccc(-c2ccccc2)cc1)C1(O)CCCCC1 (stereo not drawn) | 3.59
C[C@H](NC(=O)[C@@H]1CCC(=O)N1)C(=O)O ([pGlu]-Ala-OH) | 3.6
O=C(O)C12CC3CC(CC(F)(C3)C1)C2 | 4.22
O=C([O-])C(CO)[NH2+]Cc1cc(Cl)ccc1O (stereo not drawn) | 7.95
CC([SeH])C[NH3+] (stereo not drawn) | 5.19
CC(=O)C(C)[N+](=O)[O-] (stereo not drawn) | 5.15
c1ccc2cc3[nH]cnc3cc2c1 | 12.5
[NH3+]CCCCCCC(=O)O | 4.44
O=C(/C=C(/[70SH])c1ccccc1)Nc1ccccc1 | 4.51
O=C1C[C@H](C(=O)O)[C@@H](C(=O)[O-])O1 | 3.82
O=[N+]([O-])c1ccc(S(=O)O)cc1 | 1.86
O=S1(=O)Cc2cc(Br)ccc2N=CN1 | 9.3
O=S(Cc1ccccc1)c1ncc[nH]1 (stereo not drawn) | 9.8
O=C(C[n+]1cccc2c3ccccc3ccc21)c1ccc([N+](=O)[O-])cc1 | 9.45
COc1cccc(CCC(=O)O)c1 | 4.65
N#CC(C#N)C(c1ccccc1)C(C#N)C#N | 6.19
C=CCC1(C2=CCCCC2)C(=O)NC(=S)NC1=O | 7.09

SMILES | pKa
CC#CCC(=O)O | 3.6
[NH3+]c1ccccc1C(=O)O | 2.08
CN(C)c1ccc(C(=O)O)cc1 | 4.96
NS(=O)(=O)c1ccc(/N=C/c2ccccc2O)cc1 | 6.63
C[NH+](C)Cc1cc(Cl)ccc1O | 8.02
O=C(O)c1cnc(Br)s1 | 2.96
CC[N+](O)(CC)c1ccccc1 | 4.53
O=C(O)c1cccc(F)c1 | 3.9
CC(C)c1ccc(C(=O)/C=C/C(=O)O)cc1 | 3.4
N#CC(C#N)=C(O)c1ccc(N)cc1 | 4.28
C[C@H]1CC[C@H]2[C@H](C)CC[C@@H](C(=O)O)[NH+]2C1 | 2
O=C(O)C(F)c1ccccc1 (stereo not drawn) | 2.45
CN(C)C(=O)n1nc(C(C)(C)C)nc1SCC(=O)O | 3.49
CCC(O)C(C(=O)O)c1ccc(-c2ccccc2)cc1 (stereo not drawn) | 4.16
CCC1(C2=CCCCC2)C(=O)[N-]C(=S)NC1=O | 11.8
O=CO | 3.69
CC(C)(S)C(C(=O)[O-])n1ccnc1Cc1ccccc1 (stereo not drawn) | 10.5
O=C(O)[C@@H]1CCC[C@H](O)C1 | 4.6

Same assay, conditions: basic group

SMILES | pKa
Nc1ccc(-c2ccc(/N=C/c3ccccc3O)cc2)cc1 | 7.68
CC[NH+](CC)CCCC(C)Nc1cc(C)nc2cc(Cl)ccc12 (stereo not drawn) | 8.52
Oc1cccc2[nH]ncc12 | 8.65
CCN(CC)CCNc1cc(C)nc(N)n1 | 9.55
CC1CN=C(C(C)(C)C)S1 (stereo not drawn) | 5.02
COc1ccc([N+](=O)[O-])c(CN)c1 | 8.72
CCCCCN(CCO)CC(O)CC (stereo not drawn) | 9.1
c1ccc2c(CC3=NCCN3)cccc2c1 | 10.3
CNCCCC(=O)[O-] | 10.8
Nc1nc2cc3ccccc3cc2[nH]1 | 7.01
COc1ccc(O)c(/N=N/c2nc(C)cs2)c1 | 0.77
C[C@@H]1CCC[C@H](C)N1 | 11
Cc1nc(-c2ccccc2)[nH]c1C | 7
Cc1ccc2c(c1)N1CC[NH+]2CC1 | 2.4
C=C(C)C(=O)OCCN(C(C)C)C(C)C | 8.77
NC1CC1 | 9.1
CCOC(=O)C(N)CC (stereo not drawn) | 7.71
CCNCC(=O)Nc1c(C)cccc1C | 8.06
C[Si](C)(CN)c1ccccc1 | 10.4
Cc1nc(N(C)C)nc(OC(=O)N(C)C)c1C | 4.53
CCCCCCCCCNCc1ccc(C)cc1 | 9.48
Cc1nc[nH]c1C | 8.19
CC(CC(c1ccccc1)c1ccccc1)N1CCCCC1 (stereo not drawn) | 8.8

SMILES | pKa
Cc1cc(C)nc([S-])n1 | 8.5
C#C[C@]1(O)C[C@@H](C)N[C@@H]2CCCC[C@H]21 | 9.73
c1cc([C@@H]2CCCN2)nc([C@@H]2CCC[NH2+]2)c1 | 9.39
CCCCCc1cccnn1 | 3.7
CN1CCCCN1C | 6.66
CCN(CC)CCCN(CC)CC | 10.2
CC(C)CNCC(C)C | 10.6
Nc1ccc2c(c1)CCCC2 | 5.2
[S-]c1ncc2nccnc2n1 | 6.52
Cc1cc(C)c2cccc(C)c2n1 | 4.48
Cc1ncc2nccnc2n1 | 4.87
CCCNC1c2ccccc2C=Cc2ccccc21 | 8.9
C[n+]1c([S-])ccnc1[S-] | 6.96
CCN(CC)C/C(C)=N/[O-] | 11
c1ccc2cc3[nH]cnc3cc2c1 | 5.24
O=P([O-])([O-])C(NCc1ccccn1)c1ccccc1[O-] (stereo not drawn) | 12.1
C=CCCN1C[C@H]2C[C@@H](C1)c1cccc([O-])[n+]1C2 | 7
CN(C)c1ccc(C(=O)O)cc1 | 2.57
c1cnccn1 | 0.57
C=CC(C)(C)NC(C)(C)CC | 10.8
Nc1ccc2[nH]cnc2c1 | 6.11
c1cc(-c2ccncc2)ccn1 | 4.82
CCC(C)Nc1ccccc1 (stereo not drawn) | 5.47

SMILES | pKa
CN(C)c1ncc([N+](=O)[O-])s1 | 0.48
Nc1nc(NCCO)nc(NCCO)n1 | 5.18
C1CCN(CCCN2CCCC2)C1 | 10
NCCCCCc1ccccn1 | 10.4
CC[NH+](CC)CCCC(C)Nc1ccnc2ccccc12 (stereo not drawn) | 8.81
C=C(C)C(=O)OC(C)CN(CC)CC (stereo not drawn) | 8.65
CC1CN(C)CC[NH+]1C (stereo not drawn) | 3.93
c1c(CN2CCNCC[NH2+]CC2)n[nH]c1CN1CCNCCNCC1 | 10.5
c1coc(CNCCNCc2ccco2)c1 | 8.61
O=C(CN1CCOCC1)c1ccccc1 | 5.97
C#CCCCCN(C)C | 9.24
COc1ccc(C(=N)c2ccccc2)c(OC)c1 | 8.3
CN(C)CCSCCN(C)C | 9.1
CCN(CC)c1ncnc2[nH]ncc12 | 4.71
C[C@H]1O[C@H](O[C@H]2CC[C@H](n3ccc(N)nc3=O)O[C@@H]2C)[C@H](O)[C@@H](O)[C@@H]1N(C)C | 7
CC(C)(S)C(C(=O)[O-])n1ccnc1Cc1ccccc1 (stereo not drawn) | 7
CNc1ccccn1 | 7.13
Cc1cc(C)n(C)c(=O)n1 | 4
Cc1ccnc([O-])n1 | 9.8
CSc1nc(C)cc(=O)n1C | 0.9
C[NH+](C)CCC/N=C(\c1ccccc1)c1ccccc1O | 3.31
